Measured values taken from a melting point compilation (Tetko et al.; mined from patent text by program, amines drawn as free bases though some values may be those of a salt).

Row | melting point | SMILES
1 | 135 to 140 °C | COc1cc2c(c3c1OC(C)(C)C3)C(c1cccc(NC(=O)CS(C)(=O)=O)c1)=NC(C)(C)C2
2 | 145 to 147 °C | CC(=O)Oc1cc2c(c([N+](=O)[O-])c1OC(C)=O)C(=O)C(C)(C)CC2
3 | 164 to 167 °C | CCCc1c(OCCCOc2cccc3ccccc23)ccc2c1OC(CCC(=O)O)(CCC(=O)O)CC2=O
4 | 137 °C | Cc1ccc(SC(Cc2ccc(OCCN(C)c3nc4ccccc4o3)cc2)C(=O)O)cc1 (stereo not drawn)
5 | 175 °C | O=C1Cc2ccccc2SN1
6 | 80 to 82 °C | N#CC1Cc2ccc([N+](=O)[O-])cc2C1 (stereo not drawn)
7 | 95 to 96 °C | CCCn1nc(OCc2ccc3ccccc3n2)cc1CO
8 | 224 to 226 °C | COCn1c(C)nc2nc(O)cnc2c1=O
9 | 247 to 250 °C | CN1C(=O)CC[C@]2(C)c3ccc(-c4cc5ccccc5s4)cc3CC[C@@H]12
10 | 73 °C | CCCC1(C)CC(C)c2cc(C(C)=O)c(O)c(C)c2O1 (stereo not drawn)
11 | 189 to 190 °C | COC(=O)C(=CNc1ncnc2ccc(NC(=O)C(C)(C)C)cc12)C(=O)OC
12 | 55 °C | CCOC(=O)Nc1ccccc1SCc1ncon1
13 | 33 to 34 °C | CON=C(c1ccc2c(c1)sc(=O)n2CCOc1ccc(CC(OCC(F)(F)F)C(=O)O)cc1)C1CC1 (stereo not drawn)
14 | 60 to 65 °C | CC(C)Cc1nn(C)c(=O)c2c(S(=O)CCCO)c(Cc3cccc4ccccc34)sc12 (stereo not drawn)
15 | 157 to 159 °C | OCC(O)CNc1nnc(-c2ccc(F)c(F)c2Nc2ccc(I)cc2F)o1 (stereo not drawn)
16 | 135 to 138 °C | O=[N+]([O-])c1c(NC2CC2)ncnc1N1CCc2ccccc2CC1
17 | 123 to 125 °C | COc1ccc(-c2ccc(-c3cc(NC(Cc4ccccc4)C(=O)O)ncn3)cc2)cc1 (stereo not drawn)
18 | 157 to 158 °C | Cc1cc(OC(C)c2ccccc2)ccc1C(C)N(O)C(N)=O (stereo not drawn)
19 | 93 to 96 °C | CC(=O)NC(C)Cc1ccc(CCC(=O)O)cc1 (stereo not drawn)
20 | > 300 °C | O=c1c2ccc(Cl)cc2[nH]c2c(O)nn(C3CCOc4ccccc43)c(=O)c12 (racemic)
21 | 122 to 123 °C | c1ccc2oc(-c3nc(COc4ccc(CCCn5ccnc5)cc4)co3)cc2c1
22 | 202 to 204 °C | Cc1cccc2nc(-c3ccc(Cl)cc3)c(C(N)=O)c(=O)n12
23 | 188 to 189 °C | COCc1c(C(=O)OC(C)C)ncc2[nH]c3cccc(Oc4ccccn4)c3c12
24 | 123 to 124 °C | CCOC(=O)c1nccn1CCCc1ccc(OCc2coc(/C=C/c3ccccc3)n2)cc1

Row | melting point | SMILES
25 | 99 to 102 °C | Cc1ccc(C(O)=C(C#N)C(=O)C(C)(C)C)c([N+](=O)[O-])c1
26 | 111 to 113 °C | COC(=O)CCC(=O)SCC(=O)NC(C)=O
27 | 185 to 188 °C | CCCCc1ncc(C=C2C(=O)N(C)c3ccccc32)n1Cc1ccc(C(=O)O)cc1
28 | 115 to 117 °C | CCOC(=O)C(CCc1ccccc1)(NC(C)=O)C(=O)OCC
29 | 136 to 138 °C | Nc1ccc(-n2cc(C(F)(F)F)ccc2=O)c(Cl)c1
30 | 127 to 128 °C | COc1cccc(OC)c1C(=O)C=Cc1c(Cl)cccc1Cl
31 | 210 to 211 °C | CC1Oc2ccc(C3=NNC(=O)CC3)cc2N(C)C1=O (stereo not drawn)
32 | 126 °C | COC(=N)CCSCc1csc(N=C(N)N)n1
33 | 148 to 151 °C | O=C(O)C(CCc1ccccc1)NS(=O)(=O)c1ccc2sc3ccccc3c2c1 (stereo not drawn)
34 | 129 to 132 °C | CON=Cc1cc([N+](=O)[O-])c(Cl)cc1Cl
35 | 288 to 290 °C | O=C(O)c1cn(-c2ccc(O)cc2)c2cc(F)c(F)cc2c1=O
36 | 73 to 74 °C | CC(C)Oc1ccc(C=O)c(Oc2ccc(Cl)cc2Cl)n1
37 | 90 to 91 °C | C[Si](C)(C)c1cccc2c1Sc1c(cccc1[Si](C)(C)C)S2
38 | 178 to 180 °C | O=C(CON=C(C(=O)O)c1csc(NC(=O)C(F)(F)F)n1)OC(c1ccccc1)c1ccccc1
39 | 192 to 194 °C | Cc1ccc(S(=O)(=O)Cc2c(-c3cc([N+](=O)[O-])cc([N+](=O)[O-])c3)nn(C)c2O)cc1
40 | 160 to 163 °C | NC(=O)C1c2ccccc2SN1CCN1CCN(c2nsc3ccccc23)CC1 (stereo not drawn)
41 | 100 to 102 °C | CCCCCCCCCCCCCCCCC1CC(Cn2cncn2)(c2ccc(Cl)cc2)N(C)O1 (stereo not drawn)
42 | 135 to 137 °C | Cc1noc(NS(=O)(=O)c2c(Cc3ccc4c(c3)OCO4)sc3ccccc23)c1C
43 | 58 to 60 °C | COC(=O)CCc1cn(Cc2ccc(C(=O)OC(C)(C)C)cc2OC)c2cc(C(=O)NCC3CCCC3)ccc12
44 | 83 to 84 °C | ClCc1c(Cl)c(Cl)c(Cl)c(Cl)c1CCl
45 | 258 to 260 °C | N#Cc1cnn2c(-c3cccnc3)ccnc12
46 | 70 to 71 °C | Cc1ccc(S(=O)(=O)OCC(COC(C)(C)C)OS(=O)(=O)c2ccc(C)cc2)cc1 (single isomer, unassigned; (+))
47 | 215 to 217 °C | CCCc1nc2c(N)nc3cc(OCc4ccc(Cl)cc4)ccc3c2n1CC(C)C
48 | 109 °C | O=C1CCOc2c(Cl)cc(Br)cc21

Row | melting point | SMILES
49 | 221 to 223 °C | C1=C(CC2=NCCN2)CCc2ccccc21
50 | 235 °C | CSc1ccc(C(=O)Nc2ccc3ccc(Cl)nc3n2)s1
51 | > 250 °C | Cn1nc(-c2cnc(N)nc2-c2ccccc2Br)ccc1=O
52 | 157 to 159 °C | S=C(NN=Cc1cccc(-c2ccccc2Br)n1)NN1CCCC1
53 | 92 to 93 °C | COc1cc(CCCn2ccnc2)ccc1OCc1coc(-c2ccc(C)s2)n1
54 | 286 to 288 °C | Cn1c(=O)[nH]c2nc3ccc(OCCCC(=O)O)cc3cc21
55 | 223 to 225 °C | O=c1[nH]nc2c3c(cccc13)Oc1ccc(COP(=O)(OCc3ccccc3)OCc3ccccc3)cc1-2
56 | 129 to 130 °C | COC(=O)CCc1oc(-n2cnc3ccccc32)nc1-c1ccc(C(F)(F)F)cc1
57 | 149 to 153 °C | COC(=O)CN1CC(=O)NC1=NN=Cc1ccccc1
58 | > 300 °C | Cc1cn2c(=O)c(C(=O)O)cnc2c2cc(N)ccc12
59 | 130 to 131 °C | CCOC(=O)COc1cc(-c2nn(C)c(C(F)(F)F)c2Cl)c(F)cc1Cl
60 | 128 °C | O=C1CCC(O)(c2ccc(Cl)c(Cl)c2)CN1Cc1ccccc1 (stereo not drawn)
61 | 189 to 192 °C | NC(=S)NN=C(CCCOC(=O)Nc1cccc2ccccc12)c1ccccc1
62 | 240 to 242 °C | CC(C)(CO)c1ccc(C(=O)Nc2cn3cc(Cl)ccc3n2)cc1
63 | 246 to 248 °C | CS(=O)(=O)Nc1ccc(N2CCN(c3cnccc3N)CC2)cc1
64 | 55 to 56 °C | O=S(=O)(Nc1ccc(Cl)cc1C(=NOCc1ccc(Br)cc1)c1ccccc1)C(F)(F)F
65 | 49 to 52 °C | CNS(=O)(=O)Cc1ccc(C)cc1
66 | 69 to 71 °C | O=C(O)[C@H](Cc1ccccc1)NC(=O)[C@@H]1CCCN1S(=O)(=O)c1ccc(Cl)cc1
67 | > 300 °C | O=c1ccn(-c2ccc3c(c2)Cc2cc(=O)[nH]nc2-3)cc1
68 | 45 to 47 °C | CCOC(=O)CC(=O)N(C)c1ccc(Cl)cc1[N+](=O)[O-]
69 | 125 to 126 °C | C=CCN1CCCNC1=C[N+](=O)[O-]
70 | 115 °C | COc1cccc2c1CC(N(CCCc1c[nH]c3ccc(F)cc13)CC1CCC1)CO2 (stereo not drawn)
71 | 68.7 to 69 °C | Cc1ccc(-c2cc(CN3CCN(C(=O)OC(C)(C)C)CC3)c(=O)n(CC(C)C)n2)cc1F
72 | 262 to 263 °C | COc1ccccc1C1(O)C(=O)Nc2ccc(C)c(Cl)c21 (stereo not drawn)

Row | melting point | SMILES
73 | 92 to 95 °C | O=c1[nH]c2ccccc2n1OCc1ccccc1
74 | 124 to 126 °C | CC1(C)CC(=O)OC(NCCCCN2CCN(c3ncccn3)CC2)N1 (stereo not drawn)
75 | 185 to 188 °C | COCCc1nc2c(N)nc3ccc(Br)cc3c2n1CCCN1CCCC1=O
76 | 120 to 121 °C | COc1ccc(C(c2ccccc2)(c2ccc(OC)cc2)C(F)(F)F)cc1
77 | 285 to 290 °C | CCC(NC(=O)CC(F)(F)F)c1ccc(Cl)c2nc3n(c12)CCCN3c1ccc(Cl)cc1Cl (stereo not drawn)
78 | 83 to 85 °C | COc1ccc(C2=CC(=O)CCC2)cc1
79 | 198 to 200 °C | Cc1ccc(C2C(=O)CCC2=O)c(C)c1
80 | 129 to 130 °C | Cc1ccc(-c2c(NS(=O)(=O)c3ccc(C(C)(C)C)cc3)nc(S(C)(=O)=O)nc2OCCOCc2ccccc2)cc1
81 | 180 to 182 °C | COCCc1nc2c(N)nc3c(c2n1CCOCCNC(=O)Nc1ccccc1)CCCC3
82 | 193 to 195 °C | Cc1cccc(NC(=O)c2ccccc2SSc2ccccc2C(=O)Nc2cccc(C)c2)c1
83 | 98 to 99 °C | COc1ccc(C(=O)CC2CCCCC2=O)cc1 (stereo not drawn)
84 | 131 to 133 °C | COc1ccc2c(c1)c(CC(C)NC(=O)C(F)(F)F)c1n2CCC1 (racemic)
85 | 103 °C | C=C(CS(=O)(=O)c1ccc(C)cc1)c1ccccc1
86 | 228 to 229 °C | CC1CC(=O)NN=C1c1ccc(NC(=NC#N)NCc2ccccc2)cc1 (stereo not drawn)
87 | > 270 °C | O=C(Nc1c(Cl)cncc1Cl)c1ccc(OC(F)F)c2oc3ccc([N+](=O)[O-])cc3c12
88 | 140 to 142 °C | C=CCC1CC(=O)N1C(C(=O)OCOC(=O)C(C)(C)C)=P(c1ccccc1)(c1ccccc1)c1ccccc1 (stereo not drawn)
89 | 155 to 158 °C | O=C(c1ccccc1)c1cnc2c(c1)CCC(c1ccc(Cl)c(Cl)c1)O2 (stereo not drawn)
90 | 108 °C | N#CNC(=NCCO[N+](=O)[O-])c1ccc(N)nc1
91 | 223 to 224 °C | CC(=O)c1cc(I)c(O)c(Cl)n1
92 | > 300 °C | Cn1c2cc(Cl)ccc2c2c(=O)[nH]c(-c3ccncc3)nc21
93 | 135 to 137 °C | O=C(O)CCCOc1ccc(-c2ccc(-c3c(Cc4ccccc4)sc4ccccc34)cc2)cc1Br
94 | 184 °C | O=C(Nc1ccc(C(F)(F)F)cc1)C1=NN(c2ccccc2)CC1c1ccc(F)cc1 (stereo not drawn)
95 | 99 to 100 °C | COCCNc1cc(-c2c(-c3cccc(C)c3)nc3cccnn23)ccn1

Row | SMILES | melting point
96 | CC(C)OC(=O)NC1(c2ccccc2Cl)CCCCC1=O (stereo not drawn) | 124 to 126 °C
97 | O=c1c2c(F)cccc2nc(CSc2ncnc3[nH]cnc23)n1-c1ccccc1Cl | 223 to 224 °C
98 | CCC12CCC3C4CCC(=O)C=C4CCC3C1CCC2OC1CCCCO1 (stereo not drawn) | 148 to 152 °C
